Data as given in patent US9375004B2 (Bayer Intellectual Property GmbH, priority 2010, dated 2016).
Like-named read-outs stand apart in the source and are kept apart here.

Columns and labels:
Uromyces appendiculatus = conditions: 100 ppm, beans, preventive, evaluated 10 days after inoculation
Alternaria solani = experiment: Alternaria test (tomato)/preventive; type: in vivo; conditions: 500 ppm, preventive, evaluated 7 days after inoculation
Pyrenophora teres = experiment: Pyrenophora teres-test (barley)/preventive; type: in vivo; conditions: 500 ppm, preventive, evaluated 8 days after inoculation
Puccinia triticina = experiment: Puccinia triticina-test (wheat)/preventive; type: in vivo; conditions: 500 ppm, preventive, evaluated 8 days after inoculation
Venturia inaequalis = experiment: Venturia test (apples)/preventive; conditions: 100 ppm, preventive, evaluated 10 days after inoculation
[1] = logP by HPLC on reversed-phase column (EEC Directive 79/831 Annex V.A8); conditions: HPLC on reversed-phase column (C 18), EEC Directive 79/831 Annex V.A8
Botrytis cinerea = experiment: Botrytis test (beans)/preventive; conditions: 100 ppm, preventive, lesion size 2 days after inoculation
Sphaerotheca fuliginea = experiment: Sphaerotheca test (cucumber)/preventive; type: in vivo; conditions: 500 ppm, preventive, evaluated 7 days after inoculation
[2] = test system: Fusarium nivale (var. majus); experiment: Fusarium nivale (var. majus)-test (wheat)/preventive; conditions: preventive, evaluated 5 days after inoculation
Septoria tritici = experiment: Septoria tritici-test (wheat)/preventive; type: in vivo; conditions: 500 ppm, preventive, evaluated 21 days after inoculation

Compound | logP [1] | Efficacy (Uromyces appendiculatus) [%] | Efficacy (Alternaria solani) [%] | Efficacy (Pyrenophora teres) [%] | Efficacy (Puccinia triticina) [%] | Efficacy (Venturia inaequalis) [%] | Efficacy (Botrytis cinerea) [%] | Efficacy (Sphaerotheca fuliginea) [%] | Efficacy ([2]; 500 ppm) [%] | Efficacy (Septoria tritici) [%] | Efficacy ([2]; 250 ppm) [%] | Efficacy (Uromyces appendiculatus; listed as 104 from this invention) [%]
CCCC(C)c1ccccc1NC(=O)c1c(C(F)F)nn(C)c1F (centres unmarked) [Example 8] | 3.55 | 100 | 95 | 100 | 100 | 100 | 98 |  |  |  |  | 
CCCC(C)c1ccccc1NC(=O)c1c(C(F)F)nn(C)c1Cl (centres unmarked) [Example 9] | 3.77 | 100 | 95 | 100 | 100 | 100 |  | 100 | 100 |  |  | 
COC(C)(C)CCc1ccccc1NC(=O)c1c(C(F)F)nn(C)c1F [Example 23] | 2.74 | 90 | 70 | 71 | 100 | 100 |  |  |  | 100 |  | 
Cn1nc(C(F)F)c(C(=O)Nc2ccc(F)cc2OCC(C)(C)C)c1F [Example 28] | 4.08 | 94 | 70 | 71 | 100 | 100 |  |  |  | 90 |  | 
CC1CCCC(c2ccccc2NC(=O)c2c(C(F)F)nn(C)c2Cl)C1 (centres unmarked) [Example 53] | 4.29 | 100 | 100 |  |  | 100 | 94 | 100 |  |  |  | 
Cn1nc(C(F)F)c(C(=O)Nc2cccc3c2C2CCC3C2=C(Cl)Cl)c1Cl (centres unmarked) [Example 71] | 4.21 | 100 | 80 | 100 | 100 | 100 | 94 | 100 | 94 |  | 94 | 
Cn1nc(C(F)F)c(C(=O)Nc2cccc3c2C2CCC3C2=C(Cl)Cl)c1F (centres unmarked) [Example 72] | 3.99 | 100 | 70 | 100 | 94 | 100 | 100 | 100 | 100 |  | 100 | 
Cn1nc(C(F)F)c(C(=O)Nc2ccccc2-c2ccccc2)c1F [Example 73] | 3.25 |  | 90 |  |  |  |  | 75 |  |  |  | 
Cn1nc(C(F)F)c(C(=O)Nc2ccc(F)cc2-c2ccc(F)cc2)c1F [Example 77] | 3.16 |  | 95 |  |  |  |  | 95 |  |  |  | 
Cn1nc(C(F)F)c(C(=O)Nc2ccccc2-c2ccc(F)cc2)c1Cl [Example 78] | 3.40 |  | 90 |  |  |  |  | 75 |  |  |  | 
Cn1nc(C(F)F)c(C(=O)Nc2ccc(F)cc2-c2ccc(F)cc2)c1Cl [Example 79] | 3.41 |  | 90 |  |  |  |  | 95 |  |  |  | 
Cn1nc(C(F)F)c(C(=O)Nc2ccccc2-c2ccc(F)cc2)c1F [Example 80] | 3.20 |  | 95 |  |  |  |  | 98 |  |  |  | 
Cn1nc(C(F)F)c(C(=O)Nc2ccccc2-c2ccc(Cl)cc2)c1F [Example 85] | 3.57 | 100 | 95 | 100 | 100 | 100 | 100 | 98 | 100 |  |  | 
Cn1nc(C(F)F)c(C(=O)Nc2ccccc2-c2cccc(Cl)c2)c1Cl [Example 87] | 3.87 |  | 95 |  |  |  |  | 95 |  |  |  | 
Cn1nc(C(F)F)c(C(=O)Nc2ccccc2-c2ccc(Cl)cc2)c1Cl [Example 88] | 3.85 | 100 | 94 | 100 | 100 | 100 | 92 | 100 | 100 |  |  | 
Cn1nc(C(F)F)c(C(=O)Nc2ccccc2-c2ccc(F)c(F)c2)c1Cl [Example 89] | 3.40 | 100 | 94 | 100 | 100 | 100 | 100 | 100 | 100 |  |  | 
Cn1nc(C(F)F)c(C(=O)Nc2ccccc2-c2ccc(F)c(F)c2)c1F [Example 90] | 3.20 |  | 90 | 100 | 100 |  |  | 95 |  | 86 |  | 
Cn1nc(C(F)F)c(C(=S)Nc2ccccc2-c2ccc(Cl)c(F)c2)c1Cl [Example 101] | 3.92 |  | 80 | 100 | 100 |  |  | 95 | 100 |  |  | 

Further lines, with some results ahead:

logP [1] | Compound | Efficacy (Uromyces appendiculatus) [%] | Efficacy (Alternaria solani) [%] | Efficacy (Pyrenophora teres) [%] | Efficacy (Puccinia triticina) [%] | Efficacy (Venturia inaequalis) [%] | Efficacy (Botrytis cinerea) [%] | Efficacy (Sphaerotheca fuliginea) [%] | Efficacy ([2]; 500 ppm) [%] | Efficacy (Septoria tritici) [%] | Efficacy ([2]; 250 ppm) [%] | Efficacy (Uromyces appendiculatus; listed as 104 from this invention) [%]
3.30 | Cn1nc(C(F)F)c(C(=O)Nc2ccccc2-c2cc(F)c(F)c(F)c2)c1F [Example 104] |  |  | 100 | 100 | 100 | 100 |  |  |  |  | 100
3.25 | Cn1nc(C(F)F)c(C(=O)Nc2ccccc2-c2cc(F)c(F)cc2F)c1F [Example 107] |  | 100 |  |  |  |  | 88 |  |  |  | 
3.46 | Cn1nc(C(F)F)c(C(=O)Nc2ccccc2-c2cc(F)c(F)cc2F)c1Cl [Example 108] | 100 | 100 |  |  | 100 | 99 | 93 |  |  |  | 
3.50 | Cn1nc(C(F)F)c(C(=O)Nc2c(F)cccc2-c2ccc(Cl)c(Cl)c2)c1F [Example 115] | 100 | 95 |  | 88 | 100 | 94 |  | 86 |  |  | 
3.85 | Cn1nc(C(F)F)c(C(=O)Nc2ccccc2-c2ccc(Cl)c(Cl)c2)c1F [Example 125] | 100 | 95 | 100 | 100 | 100 | 100 | 98 |  |  |  | 
4.14 | Cn1nc(C(F)F)c(C(=O)Nc2ccccc2-c2ccc(Cl)c(Cl)c2)c1Cl [Example 126] | 96 | 89 | 100 | 100 | 75 |  | 100 | 100 |  |  | 
4.27 | Cn1nc(C(F)F)c(C(=O)Nc2ccccc2-c2ccc(-c3ccccc3)cc2)c1F [Example 137] | 99 | 95 | 93 | 100 | 100 |  | 100 |  |  |  | 
4.61 | Cn1nc(C(F)F)c(C(=O)Nc2ccccc2-c2ccc(-c3ccccc3)cc2)c1Cl [Example 138] |  |  | 86 | 100 |  |  | 100 |  |  |  | 
3.88 | Cn1nc(C(F)F)c(C(=O)Nc2ccccc2-c2ccc(Br)cc2)c1Cl [Example 140] | 100 |  | 100 | 100 | 100 | 98 |  | 86 |  |  | 
3.96 | Cn1nc(C(F)F)c(C(=S)Nc2ccccc2-c2ccc(Br)cc2)c1Cl [Example 141] |  | 70 |  |  |  |  | 95 |  |  |  | 
3.66 | Cn1nc(C(F)F)c(C(=O)Nc2ccc(F)cc2-c2ccc(C(F)(F)F)c(F)c2)c1F [Example 150] | 98 | 89 | 100 | 100 | 100 | 100 | 100 | 86 |  |  | 
3.83 | Cn1nc(C(F)F)c(C(=O)Nc2ccccc2-c2ccc(Br)c(Cl)c2)c1F [Example 152] | 100 | 94 | 100 | 100 | 100 | 100 | 95 | 100 |  |  | 
4.16 | Cn1nc(C(F)F)c(C(=O)Nc2ccccc2-c2ccc(Br)cc2Cl)c1Cl [Example 154] | 100 | 95 |  |  | 100 | 78 | 100 |  |  |  | 
3.85 | Cn1nc(C(F)F)c(C(=O)Nc2ccccc2-c2ccc(Br)cc2Cl)c1F [Example 155] | 100 | 95 |  |  | 100 | 100 |  |  |  |  | 
4.81 | Cn1nc(C(F)F)c(C(=O)Nc2ccccc2OCc2ccc(Cl)cc2Cl)c1Cl [Example 163] |  |  | 92 | 71 |  |  |  |  | 71 |  | 
4.04 | Cn1nc(C(F)F)c(C(=O)Nc2cccc(-c3ccc(Cl)cc3)c2)c1Cl [Example 208] |  |  | 100 | 100 |  |  |  | 100 | 100 |  | 
